Measurements reported in patent publication US8445006B2, “Biomolecular coating for implants” (Georgia Tech Research Corporation, priority 2006, dated 2013).

Columns and labels:
[1] = system: bone marrow stromal cells; test: Centrifugation cell adhesion assay on poly(OEGMA) brush titanium surfaces; format: cell-based, rat; conditions: poly(OEGMA) brushes, 0.9 pmol/cm^2 ligand; for cell adhesion, no antibody: serum exposure
Procedure: Cell adhesion to functionalized and untreated titanium surfaces was measured using a centrifugation assay that applies controlled detachment forces. […] Control titanium slides were coated with 10% FBS (to model serum protein adsorption) or blocking buffer (5% non-fat dry milk in PBS to produce a non adhesive support). Stromal cells were loaded with the fluorescent dye calcein-AM (2 μg/ml, Molecular Probes), detached using trypsin+EDTA, and resuspended serum-free in PBS with 2 mM dextrose. Cells were seeded onto the substrates (10,000 cells/well) for 1 h at 37° C. […] After filling the wells with PBS/dextrose and sealing with transparent adhesive tape, substrates were inverted and spun at a fixed speed in a centrifuge (Beckman Allegra 6, GH 3.8 rotor) to apply a centrifugal force corresponding to 12 g. After centrifugation, media was exchanged and fluorescence intensity was read to measure remaining adherent cells. For each well, adherent cell fraction was calculated as the ratio of post-spin to pre-spin fluorescence readings.
In vitro evaluation of these engineered titanium surfaces was performed using primary rat bone marrow stromal cells since this heterogeneous population contains osteoprogenitors, and human bone marrow stromal cells are currently used in clinical applications. Cell adhesion was examined using a centrifugation assay that applies a controlled detachment force. […] As a complementary test of integrin specificity, integrin binding was quantified using a biochemical cross-linking/extraction/reversal technique.

FAK = FAK phosphorylation on ligand-tethered brush surfaces with integrin blocking antibodies; format: cell-based, rat; conditions: for effect of integrin blocking antibodies on FAK phosphorylation: anti-α5 and anti-β3 antibodies
Procedure: Cells were detached and gently agitated in serum-free suspension for 45 min to reduce background. Cells were then seeded at 200 cells/mm^2 serum-free for 1 h. Cells were lysed in RIPA buffer (1% Triton X-100, 1% sodium deoxycholate, 0.1% SDS, 150 mM NaCl, 150 mM Tris-HCl (pH 7.2), 350 μg/ml PMSF, 10 μg/ml leupeptin, and 10 μg/ml aprotonin) for 20 min on ice. Samples were pipetted up and down 20 times and centrifuged at 8000 g for 10 min to shear DNA and isolate protein contents. Total protein was quantified using micro-BCA (Pierce). Equal amounts of protein were boiled for 10 min in Laemmli buffer and separated by SDS-PAGE on a 7% gel, transferred to nitrocellulose membranes, and blocked with Blotto (5% nonfat dry milk, 0.20% Tween-20) overnight at 4° C. Membranes were gently rocked in antibodies against FAK and specific phosphorylated FAK tyrosine residues (anti-total FAK at 1 μg/ml, anti-FAK pY397 at 0.35 μg/ml, anti-FAK pY576 at 0.5 μg/ml) for 1 h. After washing with TBS-Tween (20 mM Tris HCl pH 7.6, 137 mM NaCl, 0.1% Tween-20), secondary antibody (biotin-conjugated anti-rabbit IgG; 1:20,000) was added for 1 h, followed by alkaline phosphatase-conjugated anti-biotin antibody (1:10,000) in Blotto. Immunoreactivity was assessed by ECF fluorescent substrate. FAK bands were visualized by a Fuji Image Analyzer and phosphorylation levels normalized to total FAK.
FAK is an intracellular signaling molecule involved in integrin-mediated signal transduction and the osteogenic differentiation pathway. Phosphotyrosine-specific antibodies were used to examine the activation state of three important tyrosines in FAK: Y397 (autophosphorylation site), Y576 (essential for maximal kinase activity), and Y861 (major Src phosphorylation site) (FIG. 13C). […] These differences in integrin binding specificity and FAK activation modulate cell signaling pathways and higher order cellular activities.

MC3T3-E1 cells = test: Centrifugation cell adhesion assay on ligand-tethered SAMs; format: cell-based, murine; conditions: for ADH50 (ligand density required for half-maximal adhesion): ligand tethered to SAMs, MC3T3-E1
Procedure: MC3T3-E1 murine immature osteoblast-like cells (Riken Cell Bank, Hirosawa, Japan) were used because of their expression of multiple integrins, including alpha5beta1, alpha2beta1, and alphaVbeta3. Cells were maintained at 37° C. in α-MEM supplemented with 10% FBS and 1% penicillin-streptomycin and passaged every 2-3 days via standard culture techniques.
Self-assembled monolayers (SAMs) of alkanethiols on gold were used to present well-defined, ordered surfaces with anchoring groups within a non-fouling background. Tri(ethylene glycol)-terminated alkanethiol (HS—(CH2)11—(OCH2CH2)3—OH; EG3) and carboxylic acid-terminated alkanethiol (HS—(CH2)11—(OCH2CH2)6—OCH2COOH; EG6-COOH) were previously synthesized and characterized. Gold-coated substrates were prepared by sequential deposition of titanium (100 Å) and gold (200 Å) films via an electron beam evaporator (Thermionics Laboratories, Hayward, Calif., 2×10^−6 Torr, 1 A/s) onto clean 6-well plate lids or glass coverslips. Mixed SAM surfaces were prepared on substrates by immersing in a 1.0 mM mixed solution of EG3/EG6-COOH thiols (4 h). Peptide ligands were tethered using standard peptide chemistry. Briefly, following washing in ethanol and ultrapure H2O, SAMs were incubated in 2.0 mM EDC and 5.0 mM NHS in 0.1 M 2-(N-morpho)-ethanesulfonic acid and 0.5 M NaCl (pH 6.0), and subsequently immersed in a 20 mM solution of 2-mercaptoethanol in deionized H2O. Adhesive ligands in PBS were then incubated on the activated supports for 30 min and the unreacted surface NHS esters were then quenched in 20 mM glycine. Finally, the surfaces were blocked in 1% heat-denatured bovine serum albumin (BSA) and then incubated overnight in DPBS to reduce nonspecific protein adsorption.
A modification of a centrifugation assay was used to apply controlled detachment forces to cells adhering to engineered surfaces. Multi-wells of engineered surfaces were created on gold-coated polystyrene plate lids using silicone gaskets (Grace Bio-Labs, Bend, Oreg.). Mixed SAMs were assembled and ligands tethered at varying densities. MC3T3-E1 cells were labeled with […] calcein-AM, a membrane-permeable green fluorescent dye, in 2 mM dextrose-DPBS for 30 min and resuspended in α-MEM with 10% FBS. Cells were seeded onto the surfaces at 200 cells/mm^2, and allowed to attach for 1 h at 37° C. For blocking antibody experiments, cells were incubated in the presence of function-perturbing antibodies (10 μg/ml) for 10 min with gentle agitation prior to cell seeding. Before centrifugation, cell images were taken using a Nikon TE-300 fluorescence microscope and Spot RT digital camera. Wells were then filled completely with dextrose-PBS, sealed, inverted, and centrifuged for 5 min at a prescribed speed on a Beckman Allegra 6 centrifuge (GH 3.8 rotor) to apply normal detachment forces. Media was then gently aspirated from the wells, and wells were refilled for post-spin image collection. Post/pre-spin cell ratios were determined by image analysis, and this adhesive fraction was plotted against ligand surface density to obtain cell adhesion profiles.

[2] = maximum ligand density, normalized to unblocked controls
[3] = vs RGD-functionalized brushes and serum-exposed titanium

| Substance | cell adhesion with anti-αv antibody [1] | cell adhesion, no antibody [1] | effect of integrin blocking antibodies on FAK phosphorylation (FAK) | FAK Y861 phosphorylation (FAK; relative to FNIII7-10-tethered surface) | ADH50 (ligand density required for half-maximal adhesion) (MC3T3-E1 cells) [fmol/cm^2] | adhesion with blocking antibodies against α5β1 integrin (MC3T3-E1 cells; [2]) | cell adhesion with blocking anti-α5 antibody [1] | FAK Y397 phosphorylation (FAK; [3]) | FAK Y576 phosphorylation (FAK; [3]) | reduction of adhesion by antibodies against β3 integrin subunit (MC3T3-E1 cells; [2]) |
| --- | --- | --- | --- | --- | --- | --- | --- | --- | --- | --- |
| GRGDSPC [RGD peptide, linear RGD oligopeptide purchased from BACHEM; primarily supports αvβ3-mediated adhesion, reference compound] | eliminated adhesion | high levels of cell adhesion | only the anti-β3 antibody reduced FAK phosphorylation | elevated | 2300 | only slightly reduced adhesion | – | – | – | – |
| FNIII7-10: monobiotinylated recombinant fibronectin fragment spanning the 7-10th type III repeats of fibronectin; α5β1 integrin ligand | had no effect | high levels of cell adhesion | blocking antibodies against α5, but not β3, reduced the levels of phospho-Y397 and Y576 | – | 70 | reduced adhesion to background levels | completely eliminated cell adhesion | higher phosphorylation levels | higher phosphorylation levels | did not alter adhesion significantly |
